According to patent US5763404A, “Methods for using LHRH antagonists with low histamine release” (priority 1995, dated 1998):
Starred links: 1 amine or outer side, 2 acyl side, 3 side chain; linkers in the order of their positions; H or OH if unused. Non-standard residues stand in square brackets, D forms with d. Residues, ends and D or L forms follow the SMILES beside them. *: point of attachment. dAla(cis-4-NHCOPyz-cHex) = N[C@H](C[C@H]1CC[C@@H](NC(=O)c2cnccn2)CC1)C(=O)O; X8 = O=C(N[C@H]1CC[C@@H](C[C@@H](N[*:1])C(=O)[*:2])CC1)c1ccncn1; X6 = O=C(N[C@H]1CC[C@H](C[C@@H](N[*:1])C(=O)[*:2])CC1)c1ccccn1; X7 = O=C(N[C@H]1CC[C@H](C[C@@H](N[*:1])C(=O)[*:2])CC1)c1cccnc1; dPhe(4-Cl) = N[C@H](Cc1ccc(Cl)cc1)C(=O)O; Pyrimidin2yl(4,6-Me2) = Cc1cc(C)nc(*)n1; d2Nal = N[C@H](Cc1ccc2ccccc2c1)C(=O)O; Picolinoyl(6-Me) = Cc1cccc(C(=O)*)n1; X11 = O=C([C@H](N[*:1])c1ccsc1)[*:2]; Lys(iPr) = CC(C)NCCCC[C@H](N)C(=O)O; Orn(iPr) = CC(C)NCCC[C@H](N)C(=O)O; Pyrazinecarbonyl = O=C(c1cnccn1)*; d3Pal = N[C@H](Cc1cccnc1)C(=O)O; Nicotinoyl = O=C(c1cccnc1)*; Picolinoyl = O=C(c1ccccn1)*; dOrn = NCCC[C@@H](N)C(=O)O; Pip = O=C(O)[C@@H]1CCCCN1; Orn = NCCC[C@H](N)C(=O)O; Nva = CCC[C@H](N)C(=O)O; Bz = O=C(c1ccccc1)*

These compounds were tested on anaesthesized rats (assay: wheal test, intradermal injection). Details: 10 ug peptide intradermally.
Assay type: in vivo, rat
Design: Wheal (wheal response): unit not given here
Method: The antiovulatory activity, AOA, in rats was determined as described by Humphries et al. (12). Antiovulation assays were performed by counting, on estrus, the number of ova shed by 4-day cycling rats after a single sc injection of the LH-RH analogue in corn oil was administered between 12 and 12:30 p.m. on […]. The control rats received 0.3 mL of the vehicle. The wheal test was performed by intradermally injecting 10 ug of peptide in 100 ul of saline into anaesthesized rats, measuring the ideally circular wheal response and calculating the area. The in vitro histamine release test was done as described by Karten et al. (4). A suspension of rat mast cells was added to increasing concentrations of peptide and the mixture was incubated for a few minutes followed by centrifugation to collect the histamine in the supernatant. A PIPES (piperazine-N,N'-bis[2-ethanesulfonic acid]) medium buffered at pH 7.4 containing NaCl 119 mM, KCl 5 mM, PIPES 25 mM, NaOH 40 mM, glucose 5.6 mM, CaCl2 1 mM, and 0.1% bovine serum albumin was used. This was designated as PIPES AC. Peptides were dissolved in double distilled H2 O at a concentration of 2 mg/ml and stored at -20° C. They were thawed just prior to testing, diluted in PIPES AC and prewarmed for five minutes at 37° C. Peptides studied were stable to heating at 56° C. for two hours, and to freezing and thawing.

Row | Wheal Area [mm^2 /10 μg] | SMILES
1 | 120.4 ± 4.7 | CC(=O)N[C@H](Cc1ccc2ccccc2c1)C(=O)N[C@H](Cc1ccc(Cl)cc1)C(=O)N[C@H](Cc1cccnc1)C(=O)N[C@@H](CO)C(=O)N[C@@H](CCCCNC(=O)c1ccccn1)C(=O)N[C@H](C[C@H]1CC[C@@H](NC(=O)c2ccncn2)CC1)C(=O)N[C@@H](CC(C)C)C(=O)N[C@@H](CCCCNC(C)C)C(=O)N1CCC[C@H]1C(=O)N[C@H](C)C(N)=O [compound 26323] (Ac-[d2Nal][dPhe(4-Cl)][d3Pal]SK(Picolinoyl)[X8]L[Lys(iPr)]P[dA]-NH2)
2 | 95.3 ± 6.0 | CCC[C@H](NC(=O)[C@@H](CCCCNC(=O)c1ccccn1)NC(=O)[C@H](CCCCNC(=O)c1ccccn1)NC(=O)[C@H](CO)NC(=O)[C@@H](Cc1cccnc1)NC(=O)[C@@H](Cc1ccc(Cl)cc1)NC(=O)[C@@H](Cc1ccc2ccccc2c1)NC(C)=O)C(=O)N[C@@H](CCCCNC(C)C)C(=O)N1CCC[C@H]1C(=O)N[C@H](C)C(N)=O [compound 25989] (Ac-[d2Nal][dPhe(4-Cl)][d3Pal]SK(Picolinoyl)[dK](Picolinoyl)[Nva][Lys(iPr)]P[dA]-NH2)
3 | 116.2 ± 3.2 | CC(=O)N[C@H](Cc1ccc2ccccc2c1)C(=O)N[C@H](Cc1ccc(Cl)cc1)C(=O)N[C@H](Cc1cccnc1)C(=O)N[C@@H](CO)C(=O)N[C@@H](CCCCNC(=O)c1ccccn1)C(=O)N[C@H](C[C@H]1CC[C@@H](NC(=O)c2cnccn2)CC1)C(=O)N[C@@H](Cc1ccccc1)C(=O)N[C@@H](CCCCNC(C)C)C(=O)N1CCC[C@H]1C(=O)N[C@H](C)C(N)=O [compound 26366] (Ac-[d2Nal][dPhe(4-Cl)][d3Pal]SK(Picolinoyl)[dAla(cis-4-NHCOPyz-cHex)]F[Lys(iPr)]P[dA]-NH2)
4 | 84.6 ± 3.9 | CC(=O)N[C@H](Cc1ccc2ccccc2c1)C(=O)N[C@H](Cc1ccc(Cl)cc1)C(=O)N[C@@H](C(=O)N[C@@H](CO)C(=O)N[C@@H](CCCCNC(=O)c1ccccn1)C(=O)N[C@H](C[C@H]1CC[C@@H](NC(=O)c2cnccn2)CC1)C(=O)N[C@@H](CC(C)C)C(=O)N[C@@H](CCCCNC(C)C)C(=O)N1CCC[C@H]1C(=O)N[C@H](C)C(N)=O)c1ccsc1 [compound 26349] (Ac-[d2Nal][dPhe(4-Cl)][X11]SK(Picolinoyl)[dAla(cis-4-NHCOPyz-cHex)]L[Lys(iPr)]P[dA]-NH2)
5 | 101.0 ± 3.0 | CC(=O)N[C@H](Cc1ccc2ccccc2c1)C(=O)N[C@H](Cc1ccc(Cl)cc1)C(=O)N[C@H](Cc1cccnc1)C(=O)N[C@@H](CO)C(=O)N[C@@H](CCCCNC(=O)c1ccccn1)C(=O)N[C@H](C[C@H]1CC[C@H](NC(=O)c2ccccn2)CC1)C(=O)N[C@@H](CC(C)C)C(=O)N[C@@H](CCCCNC(C)C)C(=O)N1CCC[C@H]1C(=O)N[C@H](C)C(N)=O [IV-3] (Ac-[d2Nal][dPhe(4-Cl)][d3Pal]SK(Picolinoyl)[X6]L[Lys(iPr)]P[dA]-NH2)
6 | 95.0 ± 0 | CC(=O)N[C@H](Cc1ccc2ccccc2c1)C(=O)N[C@H](Cc1ccc(Cl)cc1)C(=O)N[C@H](Cc1cccnc1)C(=O)N[C@@H](CO)C(=O)N[C@@H](CCCCNC(=O)c1ccccn1)C(=O)N[C@H](CCCCNC(=O)c1ccccn1)C(=O)N[C@@H](CC(C)C)C(=O)N[C@@H](CCCCNC(C)C)C(=O)N1CCCC[C@H]1C(=O)N[C@H](C)C(N)=O [compound 25937] (Ac-[d2Nal][dPhe(4-Cl)][d3Pal]SK(Picolinoyl)[dK](Picolinoyl)L[Lys(iPr)][Pip][dA]-NH2)
7 | 106.2 ± 4.3 | CC(=O)N[C@H](Cc1ccc2ccccc2c1)C(=O)N[C@H](Cc1ccc(Cl)cc1)C(=O)N[C@H](Cc1cccnc1)C(=O)N[C@@H](CO)C(=O)N[C@@H](CCCCNC(=O)c1cccc(C)n1)C(=O)N[C@H](CCCCNC(=O)c1cccc(C)n1)C(=O)N[C@@H](CC(C)C)C(=O)N[C@@H](CCCCNC(C)C)C(=O)N1CCC[C@H]1C(=O)N[C@H](C)C(N)=O [compound 25808] (Ac-[d2Nal][dPhe(4-Cl)][d3Pal]SK(Picolinoyl(6-Me))[dK](Picolinoyl(6-Me))L[Lys(iPr)]P[dA]-NH2)
8 | 104.3 ± 10.5 | CC(=O)N[C@H](Cc1ccc2ccccc2c1)C(=O)N[C@H](Cc1ccc(Cl)cc1)C(=O)N[C@H](Cc1cccnc1)C(=O)N[C@@H](CO)C(=O)N[C@@H](CCCCNC(=O)c1cccnc1)C(=O)N[C@H](CCCCNC(=O)c1cnccn1)C(=O)N[C@@H](CC(C)C)C(=O)N[C@@H](CCCNC(C)C)C(=O)N1CCC[C@H]1C(=O)N[C@H](C)C(N)=O [compound 25991] (Ac-[d2Nal][dPhe(4-Cl)][d3Pal]SK(Nicotinoyl)[dK](Pyrazinecarbonyl)L[Orn(iPr)]P[dA]-NH2)
9 | 103.9 ± 3.7 | CC(=O)N[C@H](Cc1ccc2ccccc2c1)C(=O)N[C@H](Cc1ccc(Cl)cc1)C(=O)N[C@H](Cc1cccnc1)C(=O)N[C@@H](CO)C(=O)N[C@@H](CCCCNC(=O)c1ccccn1)C(=O)N[C@H](CCCCNC(=O)c1ccccn1)C(=O)N[C@@H](C)C(=O)N[C@@H](CCCCNC(C)C)C(=O)N1CCC[C@H]1C(=O)N[C@H](C)C(N)=O [compound 26099] (Ac-[d2Nal][dPhe(4-Cl)][d3Pal]SK(Picolinoyl)[dK](Picolinoyl)A[Lys(iPr)]P[dA]-NH2)
10 | 113.0 ± 0 | CC(=O)N[C@H](Cc1ccc2ccccc2c1)C(=O)N[C@H](Cc1ccc(Cl)cc1)C(=O)N[C@H](Cc1cccnc1)C(=O)N[C@@H](CO)C(=O)N[C@@H](CCCCNC(=O)c1ccccn1)C(=O)N[C@H](CCCCNC(=O)c1ccccn1)C(=O)N[C@@H](CC(C)C)C(=O)N[C@@H](CCCNC(C)C)C(=O)N1CCC[C@H]1C(=O)N[C@H](C)C(N)=O [compound 25933] (Ac-[d2Nal][dPhe(4-Cl)][d3Pal]SK(Picolinoyl)[dK](Picolinoyl)L[Orn(iPr)]P[dA]-NH2)

Same assay, conditions: Table I; 10 ug peptide intradermally

Row | Wheal [mm^2 /10] | SMILES
11 | 129.4 | CC(=O)N[C@H](Cc1ccc2ccccc2c1)C(=O)N[C@H](Cc1ccc(Cl)cc1)C(=O)N[C@H](Cc1cccnc1)C(=O)N[C@@H](CO)C(=O)N[C@@H](Cc1ccc(O)cc1)C(=O)N[C@H](CCCCNC(=O)c1cccnc1)C(=O)N[C@@H](CC(C)C)C(=O)N[C@@H](CCCN)C(=O)N1CCC[C@H]1C(=O)N[C@H](C)C(N)=O [compound 24748] (Ac-[d2Nal][dPhe(4-Cl)][d3Pal]SY[dK](Nicotinoyl)L[Orn]P[dA]-NH2)
12 | 165.2 | CC(=O)N[C@H](Cc1ccc2ccccc2c1)C(=O)N[C@H](Cc1ccc(Cl)cc1)C(=O)N[C@H](Cc1cccnc1)C(=O)N[C@@H](CO)C(=O)N[C@@H](CCCCNC(=O)c1cccnc1)C(=O)N[C@H](CCCNc1nc(C)cc(C)n1)C(=O)N[C@@H](CC(C)C)C(=O)N[C@@H](CCCCNC(C)C)C(=O)N1CCC[C@H]1C(=O)N[C@H](C)C(N)=O [compound 25334] (Ac-[d2Nal][dPhe(4-Cl)][d3Pal]SK(Nicotinoyl)[dOrn](Pyrimidin2yl(4,6-Me2))L[Lys(iPr)]P[dA]-NH2)
13 | 119.5 ± 3.2 | CC(=O)N[C@H](Cc1ccc2ccccc2c1)C(=O)N[C@H](Cc1ccc(Cl)cc1)C(=O)N[C@H](Cc1cccnc1)C(=O)N[C@@H](CO)C(=O)N[C@@H](CCCCNC(=O)c1cccnc1)C(=O)N[C@H](C[C@H]1CC[C@H](NC(=O)c2cccnc2)CC1)C(=O)N[C@@H](CC(C)C)C(=O)N[C@@H](CCCCNC(C)C)C(=O)N1CCC[C@H]1C(=O)N[C@H](C)C(N)=O [compound 25647] (Ac-[d2Nal][dPhe(4-Cl)][d3Pal]SK(Nicotinoyl)[X7]L[Lys(iPr)]P[dA]-NH2)
14 | 169.0 | CC(=O)N[C@H](Cc1ccc2ccccc2c1)C(=O)N[C@H](Cc1ccc(Cl)cc1)C(=O)N[C@H](Cc1cccnc1)C(=O)N[C@@H](CO)C(=O)N[C@@H](CCCNC(=N)N)C(=O)N[C@H](CCCCNC(=O)c1ccccc1)C(=O)N[C@@H](CC(C)C)C(=O)N[C@@H](CCCCNC(C)C)C(=O)N1CCC[C@H]1C(=O)N[C@H](C)C(N)=O [compound 25385] (Ac-[d2Nal][dPhe(4-Cl)][d3Pal]SR[dK](Bz)L[Lys(iPr)]P[dA]-NH2)
15 | 101.0 | CC(=O)N[C@H](Cc1ccc2ccccc2c1)C(=O)N[C@H](Cc1ccc(Cl)cc1)C(=O)N[C@H](CCCCNC(=O)c1cccnc1)C(=O)N[C@@H](CO)C(=O)N[C@@H](Cc1ccc(O)cc1)C(=O)N[C@H](CCCCNC(=O)c1cccnc1)C(=O)N[C@@H](CC(C)C)C(=O)N[C@@H](CCCNC(=N)N)C(=O)N1CCC[C@H]1C(=O)N[C@H](C)C(N)=O [compound 24597] (Ac-[d2Nal][dPhe(4-Cl)][dK](Nicotinoyl)SY[dK](Nicotinoyl)LRP[dA]-NH2)

Same assay, conditions: Table XIV and text, unit not given

Row | Wheal (wheal response) | SMILES
16 | 122.8 | CC(=O)N[C@H](Cc1ccc2ccccc2c1)C(=O)N[C@H](Cc1ccc(Cl)cc1)C(=O)N[C@H](Cc1cccnc1)C(=O)N[C@@H](CO)C(=O)N[C@@H](CCCCNC(=O)c1ccccn1)C(=O)N[C@H](C[C@H]1CC[C@@H](NC(=O)c2cnccn2)CC1)C(=O)N[C@@H](CC(C)C)C(=O)N[C@@H](CCCCNC(C)C)C(=O)N1CCC[C@H]1C(=O)N[C@H](C)C(N)=O [compound 25897] (Ac-[d2Nal][dPhe(4-Cl)][d3Pal]SK(Picolinoyl)[dAla(cis-4-NHCOPyz-cHex)]L[Lys(iPr)]P[dA]-NH2)
17 | 113.0 ± 0 | CC(=O)N[C@H](Cc1ccc2ccccc2c1)C(=O)N[C@H](Cc1ccc(Cl)cc1)C(=O)N[C@H](Cc1cccnc1)C(=O)N[C@@H](CO)C(=O)N[C@@H](CCCCNC(=O)c1ccccn1)C(=O)N[C@H](CCCCNC(=O)c1ccccn1)C(=O)N[C@@H](CC(C)C)C(=O)N[C@@H](CCCNC(C)C)C(=O)N1CCC[C@H]1C(=O)N[C@H](C)C(N)=O [compound 25933] (Ac-[d2Nal][dPhe(4-Cl)][d3Pal]SK(Picolinoyl)[dK](Picolinoyl)L[Orn(iPr)]P[dA]-NH2)
